According to ChEMBL document CHEMBL5291721, “A preclinical secondary pharmacology resource illuminates target-adverse drug reaction associations of marketed drugs” (Nat Commun, 2023):

What was measured:
[1] = target: T1, Muscarinic acetylcholine receptor M2 (Homo sapiens, UniProt P08172)
T1 sequence (P08172 whole entry): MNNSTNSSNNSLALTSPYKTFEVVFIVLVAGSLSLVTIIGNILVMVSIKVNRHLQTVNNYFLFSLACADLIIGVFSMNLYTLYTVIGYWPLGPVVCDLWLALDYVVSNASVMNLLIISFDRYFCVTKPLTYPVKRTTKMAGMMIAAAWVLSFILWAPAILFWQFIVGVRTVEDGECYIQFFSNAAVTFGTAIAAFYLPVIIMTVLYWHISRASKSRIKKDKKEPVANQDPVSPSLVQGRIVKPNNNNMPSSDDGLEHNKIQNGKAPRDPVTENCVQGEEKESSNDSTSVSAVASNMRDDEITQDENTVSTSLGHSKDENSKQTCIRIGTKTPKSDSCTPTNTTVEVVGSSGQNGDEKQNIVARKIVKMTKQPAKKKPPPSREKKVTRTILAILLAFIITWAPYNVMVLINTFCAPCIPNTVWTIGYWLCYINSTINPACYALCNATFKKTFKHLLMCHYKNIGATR

[2] = target: T2, Alpha-2A adrenergic receptor (Homo sapiens, UniProt P08913)
T2 sequence (P08913 whole entry): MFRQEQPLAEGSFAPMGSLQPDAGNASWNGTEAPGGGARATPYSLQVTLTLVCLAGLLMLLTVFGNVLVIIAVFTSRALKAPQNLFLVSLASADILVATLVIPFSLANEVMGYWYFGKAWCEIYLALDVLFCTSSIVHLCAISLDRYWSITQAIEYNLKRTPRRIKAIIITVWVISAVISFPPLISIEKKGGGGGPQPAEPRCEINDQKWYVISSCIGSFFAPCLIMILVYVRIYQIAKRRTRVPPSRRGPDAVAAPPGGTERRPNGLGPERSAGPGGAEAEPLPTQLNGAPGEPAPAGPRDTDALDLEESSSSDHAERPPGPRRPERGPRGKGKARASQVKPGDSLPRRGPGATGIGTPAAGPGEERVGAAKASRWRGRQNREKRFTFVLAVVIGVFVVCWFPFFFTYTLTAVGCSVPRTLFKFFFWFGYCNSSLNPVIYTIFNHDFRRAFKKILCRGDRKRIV

[3] = target: T3, Oxysterols receptor LXR-beta (Homo sapiens, UniProt P55055); type: functional
T3 sequence (P55055 whole entry): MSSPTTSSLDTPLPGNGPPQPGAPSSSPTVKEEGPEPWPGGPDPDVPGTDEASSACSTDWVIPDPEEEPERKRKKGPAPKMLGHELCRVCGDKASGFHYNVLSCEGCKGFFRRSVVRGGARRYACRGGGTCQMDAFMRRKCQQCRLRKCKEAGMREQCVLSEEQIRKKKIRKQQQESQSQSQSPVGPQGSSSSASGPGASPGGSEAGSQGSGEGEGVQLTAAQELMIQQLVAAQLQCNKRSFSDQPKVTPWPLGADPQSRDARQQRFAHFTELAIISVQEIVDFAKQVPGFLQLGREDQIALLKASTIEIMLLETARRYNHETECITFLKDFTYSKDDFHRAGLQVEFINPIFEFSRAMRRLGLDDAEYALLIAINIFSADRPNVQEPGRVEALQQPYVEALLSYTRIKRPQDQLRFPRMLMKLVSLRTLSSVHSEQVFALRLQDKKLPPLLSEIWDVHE

[4] = target: T4, Bile acid receptor (Homo sapiens, UniProt Q96RI1); type: functional
T4 sequence (Q96RI1 whole entry): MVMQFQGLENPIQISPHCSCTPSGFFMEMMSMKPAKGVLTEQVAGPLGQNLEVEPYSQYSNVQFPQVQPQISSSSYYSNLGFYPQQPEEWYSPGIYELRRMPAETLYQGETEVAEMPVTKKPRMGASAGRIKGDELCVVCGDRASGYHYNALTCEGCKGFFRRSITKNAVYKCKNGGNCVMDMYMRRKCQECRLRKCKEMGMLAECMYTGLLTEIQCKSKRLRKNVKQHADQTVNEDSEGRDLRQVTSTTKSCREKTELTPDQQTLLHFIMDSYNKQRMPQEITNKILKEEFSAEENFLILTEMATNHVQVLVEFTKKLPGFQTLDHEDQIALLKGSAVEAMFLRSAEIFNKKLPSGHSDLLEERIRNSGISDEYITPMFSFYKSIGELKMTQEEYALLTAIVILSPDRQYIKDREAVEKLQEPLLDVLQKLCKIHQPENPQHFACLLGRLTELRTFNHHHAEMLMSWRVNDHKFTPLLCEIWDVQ

[5] = target: T5, Retinoic acid receptor alpha (Homo sapiens, UniProt P10276); type: functional, cell-based
T5 sequence (P10276 whole entry): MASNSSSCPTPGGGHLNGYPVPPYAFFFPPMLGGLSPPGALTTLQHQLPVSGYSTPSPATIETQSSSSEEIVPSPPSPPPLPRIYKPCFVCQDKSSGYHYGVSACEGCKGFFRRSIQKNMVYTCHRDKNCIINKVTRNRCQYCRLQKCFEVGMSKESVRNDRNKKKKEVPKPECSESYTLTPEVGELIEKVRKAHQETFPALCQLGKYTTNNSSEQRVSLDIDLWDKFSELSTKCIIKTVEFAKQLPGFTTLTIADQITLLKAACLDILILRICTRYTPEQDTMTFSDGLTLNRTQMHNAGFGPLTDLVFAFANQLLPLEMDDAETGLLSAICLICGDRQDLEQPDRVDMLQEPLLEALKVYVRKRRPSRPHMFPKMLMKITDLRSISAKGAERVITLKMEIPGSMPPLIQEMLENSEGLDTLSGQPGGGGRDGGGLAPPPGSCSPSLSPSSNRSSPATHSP

[6] = target: T6, Retinoic acid receptor beta (Homo sapiens, UniProt P10826); type: functional, cell-based
T6 sequence (P10826 whole entry): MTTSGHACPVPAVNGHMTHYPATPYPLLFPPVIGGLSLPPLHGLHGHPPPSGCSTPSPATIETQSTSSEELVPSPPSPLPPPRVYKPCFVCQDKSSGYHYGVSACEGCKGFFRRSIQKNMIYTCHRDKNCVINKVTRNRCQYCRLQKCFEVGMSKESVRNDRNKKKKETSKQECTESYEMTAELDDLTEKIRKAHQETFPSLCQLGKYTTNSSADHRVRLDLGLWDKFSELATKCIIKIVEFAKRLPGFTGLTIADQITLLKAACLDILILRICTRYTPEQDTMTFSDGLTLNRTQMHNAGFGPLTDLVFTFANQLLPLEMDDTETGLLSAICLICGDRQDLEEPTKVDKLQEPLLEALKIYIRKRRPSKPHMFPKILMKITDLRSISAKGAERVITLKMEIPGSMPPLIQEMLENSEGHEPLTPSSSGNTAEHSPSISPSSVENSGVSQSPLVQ
Also: assay procedure not described here.

| Compound | AC50 [1] [µM] | AC50 [2] [µM] | AC50 [3] [µM] | AC50 [4] [µM] | AC50 [5] [µM] | AC50 [6] [µM] |
| --- | --- | --- | --- | --- | --- | --- |
| O=C(OCC(O)CO)c1ccccc1Nc1ccnc2cc(Cl)ccc12 (configuration not stated) [GLAFENINE] | > 30 | > 30 | – | – | – | – |
| CN1C(C(=O)Nc2ccccn2)=C(O)c2sc(Cl)cc2S1(=O)=O [LORNOXICAM] | – | – | > 30 | > 30 | > 30 | > 30 |
| Cc1c(C(=O)NN2CCCCC2)nn(-c2ccc(Cl)cc2Cl)c1-c1ccc(Cl)cc1 [RIMONABANT] | – | – | > 30 | > 30 | > 30 | > 30 |
| Cc1cn([C@H]2C=C[C@@H](CO)O2)c(=O)[nH]c1=O [STAVUDINE] | > 30 | > 30 | – | – | – | – |
